Measured values reported in ChEMBL document CHEMBL1124039, “Angiotensin-converting enzyme inhibitors. 2. Perhydroazepin-2-one derivatives” (J Med Chem, 1988).

Target: T1, Angiotensin-converting enzyme (Oryctolagus cuniculus, UniProt P12822)
T1 sequence (P12822 whole entry): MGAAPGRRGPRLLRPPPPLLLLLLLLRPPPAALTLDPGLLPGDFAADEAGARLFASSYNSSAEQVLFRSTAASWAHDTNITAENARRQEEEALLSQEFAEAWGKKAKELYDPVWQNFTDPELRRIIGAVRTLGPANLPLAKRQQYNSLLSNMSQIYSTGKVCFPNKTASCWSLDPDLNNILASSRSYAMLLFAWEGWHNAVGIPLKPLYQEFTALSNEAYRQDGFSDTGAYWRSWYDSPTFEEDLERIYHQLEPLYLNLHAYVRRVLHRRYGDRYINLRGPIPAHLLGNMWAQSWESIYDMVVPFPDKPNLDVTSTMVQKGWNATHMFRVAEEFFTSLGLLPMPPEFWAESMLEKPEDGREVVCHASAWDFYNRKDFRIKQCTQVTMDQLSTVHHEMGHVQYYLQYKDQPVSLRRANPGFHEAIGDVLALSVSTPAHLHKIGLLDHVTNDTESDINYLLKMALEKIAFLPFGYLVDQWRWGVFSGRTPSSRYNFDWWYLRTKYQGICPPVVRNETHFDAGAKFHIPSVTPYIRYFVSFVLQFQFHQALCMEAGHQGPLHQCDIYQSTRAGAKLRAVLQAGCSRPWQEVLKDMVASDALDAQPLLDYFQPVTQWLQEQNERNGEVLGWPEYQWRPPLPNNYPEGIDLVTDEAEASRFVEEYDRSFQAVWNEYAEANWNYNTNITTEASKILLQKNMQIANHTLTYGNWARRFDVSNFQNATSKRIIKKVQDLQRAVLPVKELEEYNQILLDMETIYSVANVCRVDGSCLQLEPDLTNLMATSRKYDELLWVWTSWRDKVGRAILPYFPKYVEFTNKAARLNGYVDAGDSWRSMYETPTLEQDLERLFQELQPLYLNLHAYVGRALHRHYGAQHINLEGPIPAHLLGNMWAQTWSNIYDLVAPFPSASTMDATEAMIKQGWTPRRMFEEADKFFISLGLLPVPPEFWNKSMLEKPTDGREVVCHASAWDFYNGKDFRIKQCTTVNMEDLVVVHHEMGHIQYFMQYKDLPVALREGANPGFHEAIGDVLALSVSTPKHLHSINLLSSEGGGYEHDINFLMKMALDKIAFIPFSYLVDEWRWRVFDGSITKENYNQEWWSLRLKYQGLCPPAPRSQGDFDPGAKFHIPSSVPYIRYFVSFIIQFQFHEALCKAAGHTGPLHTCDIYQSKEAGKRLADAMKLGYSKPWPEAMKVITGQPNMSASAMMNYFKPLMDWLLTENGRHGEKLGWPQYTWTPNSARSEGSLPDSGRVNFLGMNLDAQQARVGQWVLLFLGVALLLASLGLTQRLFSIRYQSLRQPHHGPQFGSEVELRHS
Assay: Concentration required for 50% inhibition of rabbit lung Angiotensin I converting enzyme with 5 mM hippuryl-histidyl-leucine as substrate

Compared with `O=C(O)CN1C(=O)[C@@H](N[C@@H](CCc2ccccc2)C(=O)O)CCC[C@@H]1c1ccccc1`, `O=C(O)CN1C(=O)[C@@H](N[C@@H](CCc2ccccc2)C(=O)O)CCC[C@H]1c1ccccc1` is 4.5-fold lower in IC50: 16.2 nM for the first, 3.6 nM for the second.

`O=C(O)CN1C[C@H](c2ccccc2)CC[C@H](N[C@@H](CCc2ccccc2)C(=O)O)C1=O` and `O=C(O)CN1C[C@@H](c2ccccc2)CC[C@H](N[C@@H](CCc2ccccc2)C(=O)O)C1=O` are within 1.5-fold of each other in IC50: 4.3 nM for the first, 3.1 nM for the second.
